Consider eight compounds from US5004756A, “Anti-cancer activity potentiator” (priority 1988, dated 1991).

In brackets after ≈: the same amount, converted by molar mass. *1 amine or outer side, *2 acyl side, *3 side chain or, on linkers, in order; H or OH if unused. Where a SMILES comes first, the peptide text is derived from it. Bridges are numbered along the chain shown (N, C = ends). Roman numbers before positions name the chains, in order. [ ]: non-standard residue; d: D form. Actinocin(9to1) = Cc1c2oc3c(C)ccc(C(=O)[*:1])c3nc-2c(C(=O)[*:2])c(N)c1=O; NMeV = CN[C@H](C(=O)O)C(C)C; Sar = CNCC(=O)O

Assay [1] deals with V79/S. Description: Colony formation (proliferation) inhibition, sensitive Chinese hamster cells (A-I Part 1). The format is cell-based. Here is the method:
(§1) Sensitive cell line V79/S and ADM-resistant cell line V79/ADM of the Chinese hamster were used, and sensitive cell line PLC/S and cholchicin-resistant cell line PLC/Col, as human hepatoma cells.
(§2) The sensitive cell lines (400 cells) or the resistant cell lines (600 cells) were each incubated for 24 hours in 10 ml of Eagle's MEM medium containing 10% bovine serum. Each of the drugs indicated in Table 1 below was dissolved in ethanol, and 50 microliters of the resulting solution was added to the medium. The incubation was further carried out for 9 days. The concentration of the drug which inhibits 50% of the colony formation (proliferation) of the tumor cells was calculated.
(§3) V79/S and V79/ADM were tested by using all of the drugs described above, but PLC/S and PLC/Col were tested by using only the malate of formula (I), adriamycin and peplomycin.
(§4) The concentrations (micrograms/ml) required to inhibit 50% of the proliferation of the tumor cells, expressed by IC50, are shown in Table 1.

The subject of assay [2] is clinically isolated human cancer cells (lung adenocarcinoma, lung squamous cell carcinoma, osteosarcoma, ovarian carcinoma). Description: Anti-tumor activity on clinically isolated human cancer cells, morphological changes (A-I Part 2). The format is cell-based.
Method: Lung adenocarcinoma, lung squamous cell carcinoma, osteosarcoma and ovarian carcinoma were selected as clinically isolated human cancer cells, and the anti-tumor activities of various drugs were examined. Specifically, various tumor tissues were individually cut to thin pieces by a razor, and by washing in saline by using a 1 mm mesh, the connective tissues were removed. The resulting solution was centrifuged at 1000 rpm for 1 minute to remove necrotizing substances. Washing with saline gave tumor cells.
They were incubated at 37° for 4 to 8 hours. Thereafter, pumping was carried out to disperse the tissue pieces. Then, centrifugation at 1000 rpm for 5 minutes, cell coating and Giemsa staining were performed. The anti-tumor activity of each drug was examined on the basis of observation of the morphological changes of the tumor cells under a microscope.
The experiment was conducted on two examples of each tumor cells (total 8 examples).
For assay [3], the system named is V79/S. Description: Anti-cancer activity potentiating action, colony formation, V79/S parent cells (A-III). As to conditions: for IC50: Cricetulus griseus. The format is cell-based, Chinese hamster. Here is the method: (§5) The anti-cancer activity potentiating action of the malate of formula (I) was examined using Chinese hamster cells (sensitive cell line V79/S and ADM-resistant cell line V79/ADM), human hepatoma cells (sensitive cell line PLC/S and colchicin-resistant cell line PLC/Col) and mouse leukemia cells (sensitive cell line L5178Y/S) and aclarubicin-resistant cell line L5178Y/ACR).
(§6) Of these tumor cells, the sensitive cells (400 cells) and the resistant cells (600 cells) were each incubated in 10 ml of Eagle's MEM medium containing 10% bovine serum for 24 hours, and then each of the test drugs indicated in Table 6 was added. Thereafter, the incubation was carried out for 9 days. The concentration (IC50 : micrograms/ml) of the test drug required to inhibit 50% of the colony formation (proliferation) of the tumor cells was calculated.
(§7) (A) Chinese hamster V79 cells
(§8) As anti-cancer agents, there were used adriamycin (ADM), aclarubicin (ACR), actinomycin D (ACD), 5-fluorouracil (5-FU), cytarabin (Ara-C), cisplatin (CDDP), methotrexate (MTX), mitomycin C (MMC), nimustine (ACNU), mitoxantrone, etoposide ([…]), vincristine (VCR), bleomycin (BLM) and peplomycin (PEP). For the sensitive cells, the anti-cancer agents were used in combination with 10 micrograms/ml of the malate of formula (I), and for the resistant cells, the anti-cancer agents were used in combination with the malate of formula (I) 3 micrograms/ml, 5 micrograms/ml, and 10 micrograms/ ml.

Assay [4] relates to V79/ADM. Description: Colony formation (proliferation) inhibition, ADM-resistant Chinese hamster cells (A-I Part 1). The format is cell-based. Here is the method:
as §1, §2, §3, §4

The test system of assay [5] is V79/ADM. Description: Anti-cancer activity potentiating action, colony formation, V79/ADM resistant cells (A-III). The assay is classed as cell-based, Chinese hamster. As to conditions: for IC50: Cricetulus griseus. Here is the method: as §5, §6, §7, §8
Assay [6] relates to P388 mouse leukemia cells. Kind of assay: Life prolongation of BDF1 mice with P388 leukemia, combination with CPA. The format is in vivo, mouse (male BDF1). To be noted: for Number of surviving animals: 30 days. Here is the method: Male BDF1 mice having a body weight of 20±2 g, 6 per group, were used. P388 mouse leukemia cells (one week after transplantation) as tumor cells were washed with 0.9% saline and suspended in saline so that the number of the cells reached 5×10^6 /m. The suspension was intraperitoneally administered to the mice at a rate of 0.2 ml (10^6 cells) per mouse.
Twenty-four hours after the transplantation of tumor cells, the malate of formula (I) and cyclophosphamide ([…]) were successively administered intraperitoneally once to the mice, and the life prolongation rate of the mice in each group was determined.
The malate of formula (I) was used after suspending it and Tween 80 at a ratio of 1:5 to saline, and this suspension was diluted with a solution of Tween 80 in the same concentration. CPA, on the other hand, was used as a solution in saline.
CPA (50 mg/kg and 100 mg/kg) and the malate of formula (I) (10 mg/kg and 20 mg/kg) were administered singly or in combination, and the life prolongation rate was determined.

Setting [7] is: read-out: IC50, anti-cancer agent alone.
Setting [8] is: read-out: IC50 in combination with compound (I).
[9] abbreviates: V79/S, with compound (I) 10 μg/ml.
[10] abbreviates: V79/ADM, with compound (I) 5 μg/ml.
The mark [11] stands for this setting: V79/S, alone, Table 6, read-out: IC50, anti-cancer agent alone.
Where [12] appears, read: V79/S, with compound (I) 10 μg/ml, read-out: IC50 in combination with compound (I).
The mark [13] stands for this setting: V79/ADM, alone, Table 6, read-out: IC50, anti-cancer agent alone.

As usually defined, the IC50 is the concentration at which inhibition is half-maximal. `Cc1c2oc3c(C)ccc(C(=O)N[C@@H]4C(=O)N[C@H](C(C)C)C(=O)N5CCC[C@H]5C(=O)N(C)CC(=O)N(C)[C@@H](C(C)C)C(=O)O[C@@H]4C)c3nc-2c(C(=O)N[C@@H]2C(=O)N[C@H](C(C)C)C(=O)N3CCC[C@H]3C(=O)N(C)CC(=O)N(C)[C@@H](C(C)C)C(=O)O[C@@H]2C)c(N)c1=O` [ACD, actinomycin D] (I: T[dV]P[Sar][NMeV] / II: T[dV]P[Sar][NMeV]; ester I:1-I:C, II:1-II:C; linker I:N-II:N via Actinocin(9to1)): the IC50 came out at 0.017 mg/L (≈ 0.0135 µM) in the assay with V79/S [1] (Cricetulus griseus, 216 h); 0.017 mg/L in the assay on V79/S [3] (setting [7]); 0.0032 mg/L in the assay with V79/S [3] (setting [8]); 0.28 mg/L (≈ 0.223 µM) in the assay on V79/ADM [4] (Cricetulus griseus, 216 h); 0.28 mg/L with V79/ADM [5] (setting [7]); 0.0063 mg/L with V79/ADM [5] (setting [8]). Moreover, the “Efficacy ratio (rated significant by Fisher's test)” value in assay [2] (0.01 μg/ml) is 0/8. Moreover, the Potentiation activity is 5.3 times in the assay with V79/S [3] (setting [9]) and 44.4 times in the assay on V79/ADM [5] (V79/ADM, with compound (I) 10 μg/ml).
As to `Cc1ncc(CNC(=O)N(CCCl)N=O)c(N)n1` [ACNU, nimustine], the “Efficacy ratio (rated significant by Fisher's test)” value in assay [2] (2.0 μg/ml) was 3/8. In addition, the IC50 with V79/S [3] (setting [7]) worked out at 7.6 mg/L; in the assay on V79/S [3] (setting [8]), 5.4 mg/L; with V79/ADM [5] (setting [7]), 10 mg/L; in the assay on V79/ADM [5] (setting [8]), 3.1 mg/L. Moreover, the Potentiation activity in the assay on V79/S [3] (setting [9]) was 1.4 times; in the assay with V79/ADM [5] (setting [10]), 3.20 times.
For `Nc1ccn([C@@H]2O[C@H](CO)[C@@H](O)[C@@H]2O)c(=O)n1` [Ara-C, cytarabin], the IC50 in the assay with V79/S [3] (setting [11]) came out at 0.076 µM; with V79/S [3] (setting [12]) it was 0.054 µM; in the assay with V79/ADM [5] (setting [13]) it was 0.22 µM; with V79/ADM [5] (V79/ADM, with compound (I) 5 μg/ml, read-out: IC50 in combination with compound (I)), 0.035 µM. In addition, the Potentiation activity was 1.4 times in the assay on V79/S [3] (setting [9]) and 6.3 times with V79/ADM [5] (setting [10]).
As to `[NH2][Pt]([NH2])([Cl])[Cl]` [CDDP, cisplatin], the IC50 with V79/S [1] (V79/S, 9 days, Table 1) is 0.37 mg/L; in the assay with V79/ADM [4] (V79/ADM, 9 days, Table 1) it was 0.32 mg/L. Also, the “Efficacy ratio (rated significant by Fisher's test)” value in assay [2] (0.5 μg/ml) is given as 4/8. Besides, the “IC50, anti-cancer agent alone” value with V79/S [3] (V79/S, alone, Table 6) was 0.37 mg/L; in the assay on V79/ADM [5] (V79/ADM, alone, Table 6), 0.32 mg/L. For the same compound, the results for the “IC50 in combination with compound (I)” value in the assay on V79/S [3] (setting [9]) and in the assay on V79/ADM [5] (setting [10]) were 0.27 mg/L and 0.13 mg/L, respectively. In addition, the Potentiation activity came out at 1.4 times in the assay on V79/S [3] (setting [9]) and 2.5 times with V79/ADM [5] (setting [10]).
For the compound `O=P1(N(CCCl)CCCl)NCCCO1` (centres unmarked) [CPA, cyclophosphamide], in assay [6] (CPA 50 mg/kg i.p.), the “MST (medium survival time)” value was 20.3, the T/C vs control is reported as 201% and the “Number of surviving animals” value is reported as 0/6. For the same compound, in assay [6] (CPA 50 mg/kg i.p. (reference group)), the “T/C vs CPA alone” value turned out to be 100%. In assay [6] (CPA 100 mg/kg i.p.), the “MST (medium survival time)” value stood at 24.0, the T/C vs control came out at 238% and the “Number of surviving animals” value was 1/6. Also, the “T/C vs CPA alone” value in assay [6] (CPA 100 mg/kg i.p. (reference group)) is on record as 100%.
For `O=P1(N(CCCl)CCCl)NCCCO1` (centres unmarked) [CPM], the “Efficacy ratio (rated significant by Fisher's test)” value in assay [2] (10 μg/ml) is reported as 3/8.
On to `COC(COC(N)=O)C1=C(N2CC2)C(=O)C(C)=C(N2CC2)C1=O` (centres unmarked) [CQ, carboquone], for which, in assay [2] (0.1 μg/ml), the “Efficacy ratio (rated significant by Fisher's test)” value is given as 1/8.
On to `COc1cc([C@@H]2c3cc4c(cc3[C@@H](O[C@@H]3O[C@@H]5CO[C@@H](C)O[C@H]5[C@H](O)[C@H]3O)[C@H]3COC(=O)[C@H]23)OCO4)cc(OC)c1O` [Etoposide, etoposide], for which the IC50 in the assay with V79/S [3] (setting [11]) is 0.27 mg/L; in the assay on V79/S [3] (setting [12]), 0.098 mg/L; in the assay on V79/ADM [5] (setting [13]), more than 20 mg/L; with V79/ADM [5] (V79/ADM, with compound (I) 3 μg/ml, read-out: IC50 in combination with compound (I)), 7.4 mg/L. Further, the Potentiation activity with V79/S [3] (setting [9]) is 2.8 times; in the assay on V79/ADM [5] (V79/ADM, with compound (I) 3 μg/ml), 2.7 times.
